Assay results reported in patent publication US11351151B2, “Compound having anticancer activity and preparation method and application” (3D Medicines (Beijing) Co., Ltd., priority 2016, dated 2022).

What was measured:
Experiment in all cases: Cell proliferation assay (Alamar Blue)
Format in all cases: cell-based
Alexander cells = settings: 144 h, liver cancer cell line, 6 days
Procedure: (§1) 1. Instruments and Materials • Thermo 311 CO2 incubator; Haier biosafety cabinet; Molecular Devices microplate reader; Xiangyi brand L530 desktop low speed centrifuge; Olympus IX51 inverted fluorescence microscope, DMEM, RPMI 1640, MEM, DMEM/F12 1:1 medium, Fetal bovine serum, 0.25% trypsin solution, phosphate buffer (Thermo Fisher Shanghai Co., Ltd.); sigma dimethyl sulfoxide (DMSO), resazurin; 54 commercial tumor cell lines (including 26 liver cancer cell lines). Experimental drugs: compounds 1-12 and active drug Linifanib; chemotherapeutic drug Doxorubicin (HY-15142; Shanghai Qianyuan Biomedical Technology Co., Ltd.).
(§2) 2. Experimental Methods • 2.1 Cultivation of different cell lines • 54 cell lines were cultured in a culture medium containing fetal bovine serum and placed in a 5% CO 2 incubator at 37° C. for incubation. The cells were all grown in an adherent state, and the growth was observed under an inverted microscope, and subculture was performed when the cell confluence rate reached 80%-90%. The proportion and quantity of passage were determined by experimental needs. The ratio of subculture of this cell line was generally 1:2^˜1:3. • 2.2 inhibition effect on the proliferation of different tumor cell lines • Cell test: 54 cell lines in logarithmic growth phase were inoculated in 96-well culture plates at 500^˜1×10^4/well (the optimal seeding density of each cell line was determined in pre-experiment), After incubating at 37° C. for 4 h in a 5% CO2 humidification incubator, added 10 μL of compounds 1-12 or Linifanib to each well, and tested 9 drug concentration gradients for each compound (diluted from the highest concentration of the test by 3.16 times). The solubility of each compound was different at a starting concentration of 30 or 100 μM, respectively. The QC reference compound Doxorubicin was added simultaneously to each cell line test, and the final drug concentrations were 10, 3.16, 1, 0.31, 0.1, 0.03, 0.01, 0.003, and 0.001 μM, respectively. In addition, a positive control group (100% inhibition) and a negative control group (0% inhibition) were set at the same time. The drug group was repeated for 2 wells per concentration, and the positive control group and the negative control group were repeated for 6 wells. After the culture was continued for 6 days in the incubator, AlamarBlue test operation was followed; • AlamarBlue test procedure: Incubated with 10 μL of AlamarBlue reagent per well for 1-4 h, shook for 1-2 min, MD microplate reader EX: 560 nm, EM: 590 nm wavelength to measure fluorescence, recorded the results, calculated the cell inhibition rate of the compound of the invention. Cell inhibition rate (%)=(A0% inhibition−A administration)/(A0% inhibition−A100% inhibition)×100%, and then using the method of nonlinear regression using Graph Pad Prism 5.0 or MATILAB software (usually using four parameters) to graph and obtain a drug dose response curve to obtain an IC50 value of the compound of the present invention acting on a cancer cell line.

TE-15 = settings: Homo sapiens, 144 h; TE-15 tumor cell line; 6 days
Procedure: as §1, §2

JHH4 = settings: JHH-4, 144 h; JHH4 liver cancer cell line; 6 days
Procedure: as §1, §2

K562 = settings: Homo sapiens, 144 h; K562 tumor cell line; 6 days
Procedure: as §1, §2

SW620 = settings: Homo sapiens, SW-620, 144 h; SW620 tumor cell line; 6 days
Procedure: as §1, §2

JHH7 = settings: 144 h; JHH7 liver cancer cell line; 6 days
Procedure: as §1, §2

KASUMI-1 = settings: Homo sapiens, 144 h; KASUMI-1 (leukemia cells); 6 days
Procedure: as §1, §2

SNU739 = settings: SNU-739, 144 h; SNU739 liver cancer cell line; 6 days
Procedure: as §1, §2

HEPG2 = settings: Homo sapiens, 144 h; HEPG2 liver cancer cell line; 6 days
Procedure: as §1, §2

HUH7 = settings: Homo sapiens, Huh-7, 144 h; HUH7 liver cancer cell line; 6 days
Procedure: as §1, §2

HT55 = settings: Homo sapiens, 144 h; HT55 tumor cell line; 6 days
Procedure: as §1, §2

22RV1 = settings: Homo sapiens, 144 h; 22RV1 tumor cell line; 6 days
Procedure: as §1, §2

KM12 = settings: Homo sapiens, 144 h; KM12 tumor cell line; 6 days
Procedure: as §1, §2

Li-7 = settings: 144 h; Li-7 liver cancer cell line; 6 days
Procedure: as §1, §2

HT1080 = settings: Homo sapiens, HT-1080, 144 h; HT1080 tumor cell line; 6 days
Procedure: as §1, §2

SNU423 = settings: Homo sapiens, SNU-423, 144 h; SNU423 liver cancer cell line; 6 days
Procedure: as §1, §2

HUH6 = settings: Homo sapiens, HuH-6, 144 h; HUH6 liver cancer cell line; 6 days
Procedure: as §1, §2

MG63 = settings: Homo sapiens, MG-63, 144 h; MG63 tumor cell line; 6 days
Procedure: as §1, §2

HLE = settings: Homo sapiens, 144 h; HLE liver cancer cell line; 6 days
Procedure: as §1, §2

DLD1 = settings: Homo sapiens, DLD-1, 144 h; DLD1 tumor cell line; 6 days
Procedure: as §1, §2

SNU387 = settings: Homo sapiens, SNU-387, 144 h; SNU387 liver cancer cell line; 6 days
Procedure: as §1, §2

NCl-H1648 = settings: 144 h; NCl-H1648 tumor cell line; 6 days
Procedure: as §1, §2

NCl-H1703 = settings: 144 h; NCl-H1703 (lung cancer cells); 6 days
Procedure: as §1, §2

LC-2-ad = settings: Homo sapiens, 144 h; LC-2-ad tumor cell line; 6 days
Procedure: as §1, §2

SMILES | IC50 (K562) | IC50 (SW620) | IC50 (SNU739) | IC50 (HEPG2) | IC50 (HUH7) | IC50 (22RV1) | IC50 (HT1080) | IC50 (SNU423) | IC50 (HUH6) | IC50 (DLD1) | IC50 (Alexander cells) | IC50 (TE-15) | IC50 (JHH4) | IC50 (JHH7) | IC50 (KASUMI-1) | IC50 (HT55) | IC50 (KM12) | IC50 (Li-7) | IC50 (MG63) | IC50 (HLE) | also measured
Cc1ccc(F)c(NC(=O)Nc2ccc(-c3cccc4c3c(N)nn4C(=O)CCCCCCCCCCCNC(=O)C[C@H](N)C(=O)O)cc2)c1 [Compound 12] | > 30 µM | > 30 µM | > 30 µM | > 30 µM | > 30 µM | > 30 µM | > 30 µM | 10.9 µM | 10.6 µM | > 30 µM | > 30 µM | > 30 µM | > 30 µM | > 30 µM | 0.05 µM | > 30 µM | > 30 µM | > 30 µM | > 30 µM | > 30 µM | IC50 (SNU387): 30.3 µM; IC50 (NCl-H1648): > 30 µM; IC50 (NCl-H1703): 0.05 µM; IC50 (LC-2-ad): > 30 µM
Cc1ccc(F)c(NC(=O)Nc2ccc(-c3cccc4c3c(N)nn4C(=O)CCCCCNC(=O)C[C@H](N)C(=O)N[C@@H](CCC(=O)N[C@@H](CCC(=O)N[C@@H](CCC(=O)N[C@@H](CCC(=O)N[C@@H](CCC(=O)N[C@@H](CCC(=O)N[C@@H](CCC(=O)N[C@@H](CCC(=O)N[C@@H](CCC(=O)O)C(=O)O)C(=O)O)C(=O)O)C(=O)O)C(=O)O)C(=O)O)C(=O)O)C(=O)O)C(=O)O)cc2)c1 [Compound 6] | 74.3 µM | > 100 µM | > 100 µM | 43.4 µM | 92.1 µM | > 100 µM | > 100 µM | > 100 µM | 88.7 µM | > 100 µM | > 100 µM | > 100 µM | 79 µM | 83.2 µM | 4.94 µM | > 100 µM | 70 µM | 82 µM | > 100 µM | 68.9 µM | IC50 (SNU387): > 100 µM; IC50 (NCl-H1648): > 100 µM; IC50 (NCl-H1703): 7.16 µM; IC50 (LC-2-ad): 67.8 µM
Cc1ccc(F)c(NC(=O)Nc2ccc(-c3cccc4[nH]nc(N)c34)cc2)c1 [Linifanib, reference compound] | 10.8 µM | 2.78 µM | 5.45 µM | 0.83 µM | 1.67 µM | 7.5 µM | 6.4 µM | 9.24 µM | > 30 µM | 11.6 µM | 4.09 µM | 3.6 µM | 10.6 µM | 1.83 µM | 0.01 µM | 22.3 µM | 1.39 µM | 5.43 µM | 1.78 µM | 3.93 µM | IC50 (SNU387): 12.3 µM; IC50 (NCl-H1648): 7.17 µM; IC50 (NCl-H1703): 0.02 µM; IC50 (LC-2-ad): 4.78 µM
Cc1ccc(F)c(NC(=O)Nc2ccc(-c3cccc4c3c(N)nn4C(=O)CCCCCCCCCCCNC(=O)C[C@H](N)C(=O)N[C@@H](CCC(=O)O)C(=O)O)cc2)c1 [Compound 7] | 23.9 µM | 21.9 µM | 37.4 µM | 5.83 µM | 22.1 µM | > 100 µM | > 100 µM | > 100 µM | > 100 µM | 97 µM | 98 µM | 63.6 µM | 39.4 µM | 9.98 µM | 0.096 µM | > 100 µM | 7.72 µM | 34.5 µM | 73 µM | 36.3 µM | IC50 (SNU387): > 100 µM; IC50 (NCl-H1648): > 100 µM; IC50 (NCl-H1703): 0.18 µM; IC50 (LC-2-ad): 54.3 µM
Cc1ccc(F)c(NC(=O)Nc2ccc(-c3cccc4c3c(N)nn4C(=O)C[C@H](N)C(=O)N[C@@H](CCC(=O)N[C@@H](CCC(=O)N[C@@H](CCC(=O)N[C@@H](CCC(=O)O)C(=O)O)C(=O)O)C(=O)O)C(=O)O)cc2)c1 [Compound 2] | 7.13 µM | 4.67 µM | 6.33 µM | 0.64 µM | 4.32 µM | 7.81 µM | 19.3 µM | 14.4 µM | 0.82 µM | 14 µM | 5.21 µM | 8.45 µM | 5.83 µM | 2.84 µM | 0.12 µM | 20.4 µM | 2.94 µM | 7.26 µM | 15.8 µM | 2.69 µM | IC50 (SNU387): 19.4 µM; IC50 (NCl-H1648): 8.91 µM; IC50 (NCl-H1703): 0.063 µM; IC50 (LC-2-ad): 13.5 µM

Compounds with a lower IC50 (K562), results first:

IC50 (K562) | IC50 (SW620) | IC50 (SNU739) | IC50 (HEPG2) | IC50 (HUH7) | IC50 (22RV1) | IC50 (HT1080) | IC50 (SNU423) | IC50 (HUH6) | IC50 (DLD1) | SMILES | IC50 (Alexander cells) | IC50 (TE-15) | IC50 (JHH4) | IC50 (JHH7) | IC50 (KASUMI-1) | IC50 (HT55) | IC50 (KM12) | IC50 (Li-7) | IC50 (MG63) | IC50 (HLE) | also measured
3.99 µM | 2.79 µM | 4.56 µM | 0.45 µM | 3.22 µM | 6.69 µM | 13.2 µM | 9.03 µM | 0.13 µM | 9.86 µM | Cc1ccc(F)c(NC(=O)Nc2ccc(-c3cccc4c3c(N)nn4C(=O)C[C@H](N)C(=O)N[C@@H](CCC(=O)O)C(=O)O)cc2)c1 [Compound 1] | 5.5 µM | 7.59 µM | 2.62 µM | 1.81 µM | 0.051 µM | 16.8 µM | 1.89 µM | 5.35 µM | 7.69 µM | 1.98 µM | IC50 (SNU387): 12.8 µM; IC50 (NCl-H1648): 6.89 µM; IC50 (NCl-H1703): 0.04 µM; IC50 (LC-2-ad): 8.89 µM
3.04 µM | 3.46 µM | 3.87 µM | 0.37 µM | 2.89 µM | 6.21 µM | 8.82 µM | 8.62 µM | 0.15 µM | 7.53 µM | Cc1ccc(F)c(NC(=O)Nc2ccc(-c3cccc4c3c(N)nn4C(=O)C[C@H](N)C(=O)O)cc2)c1 [Compound 10] | 5.31 µM | 6.31 µM | 2.31 µM | 1.65 µM | 0.042 µM | 14.9 µM | 1.47 µM | 4.38 µM | 4.37 µM | 1.26 µM | IC50 (SNU387): 10.5 µM; IC50 (NCl-H1648): 6.06 µM; IC50 (NCl-H1703): 0.021 µM; IC50 (LC-2-ad): 6.38 µM
